Results as given in US10688093B2, “Methods, compositions, and uses of novel Fyn kinase inhibitors” (priority 2015, dated 2020).

Target: full-length recombinant human FYN A (Homo sapiens (Human), UniProt P06241)
Assay: ADP-Glo Kinase Assay of FYN kinase inhibition
Type: biochemical
Settings: primary screen, initial compounds
Outline: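 ADP-Glo read-out of peptide phosphorylation after 90 min RT with 12.5 pmol ATP and 100 pg 12-mer substrate. Enzyme was N-GST full-length human FYN A from insect cells, 3 pg, pre-incubated 30 min with compound, 10 points from 10 μM top, 3-fold steps; IC50 from curve.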

Chain of full-length recombinant human FYN A (P06241 whole entry): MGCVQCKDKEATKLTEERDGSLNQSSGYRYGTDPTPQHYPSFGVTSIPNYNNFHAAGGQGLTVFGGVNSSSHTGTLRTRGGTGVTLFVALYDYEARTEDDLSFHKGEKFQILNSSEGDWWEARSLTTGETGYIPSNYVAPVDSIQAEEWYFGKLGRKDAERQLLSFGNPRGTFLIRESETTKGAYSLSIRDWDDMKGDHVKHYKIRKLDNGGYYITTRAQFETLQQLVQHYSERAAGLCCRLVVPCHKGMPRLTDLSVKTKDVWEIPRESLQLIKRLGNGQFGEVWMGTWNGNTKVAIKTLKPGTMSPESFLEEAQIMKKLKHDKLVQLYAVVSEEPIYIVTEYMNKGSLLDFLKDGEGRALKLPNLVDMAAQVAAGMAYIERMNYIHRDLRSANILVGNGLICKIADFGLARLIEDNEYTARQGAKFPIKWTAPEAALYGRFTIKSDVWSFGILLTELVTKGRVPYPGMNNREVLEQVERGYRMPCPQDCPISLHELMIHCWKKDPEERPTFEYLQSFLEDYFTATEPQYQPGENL

Row | IC50 [µM] | Compound
1 | 0.971 | COc1cc(-c2cc(-c3ccc(N)cc3)cnc2N)cc(OC)c1OC [382_0087_0333, 5-(4-aminophenyl)-3-(3,4,5-trimethoxy-phenyl)pyridin-2-amine]
2 | 2.86 | COc1cc(-c2cc(-c3ccc(F)cc3)cnc2N)cc(OC)c1OC [382_0087_0339, 5-(4-fluoro-phenyl)-3-(3,4,5-trimethoxy-phenyl)pyridin-2-amine]
3 | 12.1 | COc1cc(-c2cc(-c3ccoc3)cnc2N)cc(OC)c1OC [382_0087_0343, 5-(3-furyl)-3-(3,4,5-trimethoxy-phenyl)pyridin-2-amine]
4 | 0.4 | COc1cc(-c2cc(-c3ccc(C(N)=O)cc3)cnc2N)cc(OC)c1OC [382_0087_0346, 4-[6-amino-5-(3,4,5-trimethoxy-phenyl)-3-pyridyl]benzamide]
5 | 9.5 | COc1cccc(-c2cnc(N)c(-c3cc(OC)c(OC)c(OC)c3)c2)c1 [382_0087_4140, 5-(3-methoxyphenyl)-3-(3,4,5-trimethoxyphenyl) pyridin-2-amine]
6 | 0.525 | COc1cc(-c2cc(-c3cccc(NS(C)(=O)=O)c3)cnc2N)cc(OC)c1OC [382_0087_6488, N-[3-[6-amino-5-(3,4,5-trimethoxy-phenyl)-3-pyridyl]phenyl] methane-sulfonamide]
7 | 1.73 | COc1cc(-c2cc(-c3ccc(O)cc3)cnc2N)cc(OC)c1OC [382_0087_7249, 4-[6-amino-5-(3,4,5-trimethoxy-phenyl)-3-pyridyl]phenol]
8 | 0.507 | COc1cc(-c2cc(-c3ccc(C(=O)NC4CC4)cc3)cnc2N)cc(OC)c1OC [382_0087_7489, 4-[6-amino-5-(3,4,5-trimethoxy-phenyl)-3-pyridyl]-N-cyclopropyl-benzamide]
9 | 4.66 | CN(C)CCCOc1ccc(-c2cnc(N)c(-c3cccc(N(C)C)c3)c2)cn1 [382_0135_0002, 3-[3-(dimethylamino)phenyl]-5-[6-[3-(dimethyl-amino)propoxy]-3-pyridyl]pyridin-2-amine]
10 | 7.11 | CN(C)c1cccc(-c2cc(-c3cccnc3)cnc2N)c1 [382_0135_0071, 3-[3-(dimethyl-amino)phenyl]-5-(3-pyridyl)pyridin-2-amine]
11 | 5.05 | COc1ccc(-c2cnc(N)c(-c3cccc(N(C)C)c3)c2)cc1OC [382_0135_0079, 5-(3,4-dimethoxy-phenyl)-3-[3-(dimethylamino)phenyl]pyridin-2-amine]
12 | 3.13 | COc1cc(-c2cnc(N)c(-c3cccc(N(C)C)c3)c2)cc(OC)c1OC [382_0135_0087, 3-[3-(dimethyl-amino)phenyl]-5-(3,4,5-trimethoxy-phenyl)pyridin-2-amine]
13 | 3.57 | CN(C)c1cccc(-c2cc(-c3cccc(C(=O)NCCO)c3)cnc2N)c1 [382_0135_0192, 3-[6-amino-5-[3-(dimethylamino)phenyl]-3-pyridyl]-N-(2-hydroxyethyl) benzamide]
14 | 4.44 | CN1CCN(C(=O)c2cccc(-c3cnc(N)c(-c4cccc(N(C)C)c4)c3)c2)CC1 [382_0135_0200, [3-[6-amino-5-[3-(dimethylamino)phenyl]-3-pyridyl]phenyl]-(4-methyl-piperazin-1-yl)methanone]
15 | 2.7 | CN(C)c1cccc(-c2cc(-c3cccc(CO)c3)cnc2N)c1 [382_0135_0291, [3-[6-amino-5-[3-(dimethylamino)phenyl]-3-pyridyl]phenyl] methanol]
16 | 2.11 | COc1cc(-c2cnc(N)c(-c3cccc(N(C)C)c3)c2)ccc1O [382_0135_0314, 4-[6-amino-5-[3-(dimethylamino)phenyl]-3-pyridyl]-2-methoxy-phenol]
17 | 4.2 | Cc1cc(-c2cnc(N)c(-c3cccc(N(C)C)c3)c2)cc(C)c1O [382_0135_0315, 4-[6-amino-5-[3-(dimethylamino)phenyl]-3-pyridyl]-2,6-dimethyl-phenol]
18 | 3.52 | CN(C)c1cccc(-c2cc(-c3cccc(C(N)=O)c3)cnc2N)c1 [382_0135_0347, 3-[6-amino-5-[3-(dimethylamino)phenyl]-3-pyridyl] benzamide]
19 | 4.64 | Nc1ncc(-c2ccc(N3CCOCC3)cc2)cc1-c1cccc(O)c1 [382_0284_0001, 3-[2-amino-5-(4-morpholino-phenyl)-3-pyridyl]phenol]
20 | 2 | COc1ccc(-c2cnc(N)c(-c3cccc(O)c3)c2)cc1OC [382_0284_0079, 3-[2-amino-5-(3,4-dimethoxy-phenyl)-3-pyridyl]phenol]
21 | 1.02 | COc1cc(-c2cnc(N)c(-c3cccc(O)c3)c2)cc(OC)c1OC [382_0284_0087, 3-[2-amino-5-(3,4,5-trimethoxy-phenyl)-3-pyridyl]phenol]
22 | 5.13 | COc1ccc(-c2cnc(N)c(-c3ccc(CO)cc3)c2)cc1OC [382_0285_0079, [4-[2-amino-5-(3,4-dimethoxy-phenyl)-3-pyridyl]phenyl] methanol]
23 | 4.64 | Cc1cc(-c2cnc(N)c(-c3ccc(CO)cc3)c2)cc(C)c1O [382_0285_0315, 4-[6-amino-5-[4-(hydroxymethyl)phenyl]-3-pyridyl]-2,6-dimethyl-phenol]
24 | 1.48 | COc1cc(-c2cc(-c3ccccc3)cnc2N)ccc1O [382_0314_0061, 4-(2-amino-5-phenyl-3-pyridyl)-2-methoxy-phenol]

Row | IC50 [µM] | Compound
25 | 0.0806 | COc1cc(-c2cc(-c3cc(OC)c(OC)c(OC)c3)cnc2N)ccc1O [382_0314_0087, 4-[2-amino-5-(3,4,5-trimethoxy-phenyl)-3-pyridyl]-2-methoxy-phenol]
26 | 11.3 | COc1cc(-c2cc(-c3ccc(F)c(Cl)c3)cnc2N)ccc1O [382_0314_0164, 4-[2-amino-5-(3-chloro-4-fluoro-phenyl)-3-pyridyl]-2-methoxy-phenol]
27 | 0.349 | COc1cc(-c2cc(-c3ccc(S(C)(=O)=O)cc3)cnc2N)ccc1O [382_0314_0174, 4-[2-amino-5-(4-methylsulfonyl-phenyl)-3-pyridyl]-2-methoxy-phenol]
28 | 3.51 | COc1cc(-c2cc(-c3cccc(Cl)c3)cnc2N)ccc1O [382_0314_0279, 4-[2-amino-5-(3-chlorophenyl)-3-pyridyl]-2-methoxy-phenol]
29 | 4.16 | COc1ccc(-c2cnc(N)c(-c3ccc(O)c(OC)c3)c2)cc1 [382_0314_0280, 4-[2-amino-5-(4-methoxyphenyl)-3-pyridyl]-2-methoxy-phenol]
30 | 2.03 | COc1cc(-c2cc(-c3cccc(F)c3)cnc2N)ccc1O [382_0314_0313, 4-[2-amino-5-(3-fluorophenyl)-3-pyridyl]-2-methoxy-phenol]
31 | 0.526 | COc1cc(-c2cc(-c3cc(C)c(O)c(C)c3)cnc2N)ccc1O [382_0314_0315, 4-[6-amino-5-(4-hydroxy-3-methoxy-phenyl)-3-pyridyl]-2,6-dimethyl-phenol]
32 | 3.24 | COc1cc(-c2cc(-c3ccc(F)cc3)cnc2N)ccc1O [382_0314_0339, 4-[2-amino-5-(4-fluorophenyl)-3-pyridyl]-2-methoxy-phenol]
33 | 4.34 | COc1cc(-c2cc(-c3ccc(C)cc3)cnc2N)ccc1O [382_0314_4139, 4-[2-amino-5-(p-tolyl)-3-pyridyl]-2-methoxy-phenol]
34 | 1.2 | COc1cccc(-c2cnc(N)c(-c3ccc(O)c(OC)c3)c2)c1 [382_0314_4140, 4-[2-amino-5-(3-methoxyphenyl)-3-pyridyl]-2-methoxy-phenol]
35 | 1.55 | COCOc1ccc(-c2cc(-c3cccc(NC(C)=O)c3)cnc2N)cc1 [382_0341_0081]
36 | 1.9 | COCOc1ccc(-c2cc(-c3cc(OC)c(OC)c(OC)c3)cnc2N)cc1 [382_0341_0087, 3-[4-(methoxymethoxy)phenyl]-5-(3,4,5-trimethoxy-phenyl)pyridin-2-amine]
37 | 4.62 | COCOc1ccc(-c2cc(-c3cccc(CO)c3)cnc2N)cc1 [382_0341_0291, [3-[6-amino-5-[4-(methoxymethoxy)phenyl]-3-pyridyl]phenyl] methanol]
38 | 3.42 | COCOc1ccc(-c2cc(-c3ccc(C(N)=O)cc3)cnc2N)cc1 [382_0341_0346, 4-[6-amino-5-[4-(methoxy-methoxy)phenyl]-3-pyridyl] benzamide]
39 | 3.02 | COCOc1ccc(-c2cc(-c3cccc(C(N)=O)c3)cnc2N)cc1 [382_0341_0347, 3-[6-amino-5-[4-(methoxymethoxy)phenyl]-3-pyridyl]benzamide]
40 | 0.838 | CC(=O)Nc1cccc(-c2cnc(N)c(-c3ccc(O)cc3)c2)c1 [382_7249_0081, N-[3-[6-amino-5-(4-hydroxyphenyl)-3-pyridyl]phenyl] acetamide]
41 | 0.209 | COc1cc(-c2cnc(N)c(-c3ccc(O)cc3)c2)cc(OC)c1OC [382_7249_0087, 4-[2-amino-5-(3,4,5-trimethoxy-phenyl)-3-pyridyl]phenol]
42 | 2.19 | CN(C)c1cccc(-c2cnc(N)c(-c3ccc(O)cc3)c2)c1 [382_7249_0135, 4-[2-amino-5-[3-(dimethylamino)phenyl]-3-pyridyl]phenol]
43 | 1.25 | CS(=O)(=O)c1ccc(-c2cnc(N)c(-c3ccc(O)cc3)c2)cc1 [382_7249_0174, 4-[2-amino-5-(4-methylsulfonyl-phenyl)-3-pyridyl]phenol]
44 | 3.49 | COc1cccc(-c2cnc(N)c(-c3ccc(O)cc3)c2)c1 [382_7249_4140, 4-[2-amino-5-(3-methoxyphenyl)-3-pyridyl]phenol]
45 | 6.91 | CN(C)CCNC(=O)c1ccc(-c2cn3c(-c4ccncc4)cnc3cn2)cc1 [388_0069_0327, N-(2-dimethylamino-ethyl)-4-[3-(4-pyridyl)imidazo [1,2-a]pyrazin-6-yl]benzamide]
46 | 3.95 | c1ccc(-c2cn3c(-c4ccsc4)cnc3cn2)cc1 [388_0074_0061, 6-phenyl-3-(3-thienyl)imidazo [1,2-a]pyrazine]
47 | 4.34 | c1cncc(-c2cn3c(-c4ccsc4)cnc3cn2)c1 [388_0074_0071, 6-(3-pyridyl)-3-(3-thienyl)imidazo [1,2-a]pyrazine]
48 | 2.35 | OCc1ccc(-c2cn3c(-c4ccsc4)cnc3cn2)cc1 [388_0074_0285, [4-[3-(3-thienyl)imidazo [1,2-a]pyrazin-6-yl]phenyl] methanol]
